# Data: ChEMBL document CHEMBL1201861, “Genomics of Drug Sensitity in Cancer screening data, Wellcome Trust Sanger Institute”
# Test system: MPP-89;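 note: growth inhibition of human MPP-89 cells, read out with a cell viability assay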
# Assay: cells
# Assay type: functional, cell-based, Homo sapiens
# Conditions: Homo sapiens, MPP-89
row,SMILES,IC50 [nM]
1,CCN(CC)CCCCNc1ncc2cc(-c3cc(OC)cc(OC)c3)c(NC(=O)NC(C)(C)C)nc2n1 [PD-173074],> 2000

# Test system: ES4;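 note: growth inhibition of human ES4 cells, read out by a cell viability assay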
# Assay: cells
# Assay type: functional, cell-based, Homo sapiens
# Conditions: Homo sapiens, ES4
# Description: SANGER: Inhibition of human ES4 cell growth in a cell viability assay.
row,SMILES,IC50 [nM]
1,CCN(CC)CCCCNc1ncc2cc(-c3cc(OC)cc(OC)c3)c(NC(=O)NC(C)(C)C)nc2n1 [PD-173074],> 2000

# Test system: NB12;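 note: growth inhibition of human NB12 cells, read out by a cell viability assay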
# Assay: cells
# Assay type: functional, cell-based, Homo sapiens
# Conditions: Homo sapiens, NB12
# Description: SANGER: Inhibition of human NB12 cell growth in a cell viability assay.
row,SMILES,IC50 [nM]
1,CCN(CC)CCCCNc1ncc2cc(-c3cc(OC)cc(OC)c3)c(NC(=O)NC(C)(C)C)nc2n1 [PD-173074],> 2000

# Test system: NCI-H1650;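 note: growth inhibition of human NCI-H1650 cells measured by a cell viability assay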
# Assay: cells
# Assay type: functional, cell-based, Homo sapiens
# Conditions: Homo sapiens, NCI-H1650
# Description: SANGER: Inhibition of human NCI-H1650 cell growth in a cell viability assay.
row,SMILES,IC50 [nM]
1,CCN(CC)CCCCNc1ncc2cc(-c3cc(OC)cc(OC)c3)c(NC(=O)NC(C)(C)C)nc2n1 [PD-173074],> 2000

# Test system: A101D;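 note: growth inhibition of the cell line, measured with a viability assay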
# Assay: cells
# Assay type: functional, cell-based, Homo sapiens
# Conditions: Homo sapiens, A101D
# Description: SANGER: Inhibition of human A101D cell growth in a cell viability assay.
row,SMILES,IC50 [nM]
1,CCN(CC)CCCCNc1ncc2cc(-c3cc(OC)cc(OC)c3)c(NC(=O)NC(C)(C)C)nc2n1 [PD-173074],> 2000

# Test system: ES6;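 note: growth inhibition of human ES6 cells, read out with a cell viability assay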
# Assay: cells
# Assay type: functional, cell-based, Homo sapiens
# Conditions: Homo sapiens, ES6
# Description: SANGER: Inhibition of human ES6 cell growth in a cell viability assay.
row,SMILES,IC50 [nM]
1,CCN(CC)CCCCNc1ncc2cc(-c3cc(OC)cc(OC)c3)c(NC(=O)NC(C)(C)C)nc2n1 [PD-173074],> 2000

# Test system: NCI-H82;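 note: growth inhibition of NCI-H82 cells, measured with a cell viability readout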
# Assay: cells
# Assay type: functional, cell-based, Homo sapiens
# Conditions: Homo sapiens, NCI-H82
# Description: SANGER: Inhibition of human NCI-H82 cell growth in a cell viability assay.
row,SMILES,IC50 [nM]
1,CCN(CC)CCCCNc1ncc2cc(-c3cc(OC)cc(OC)c3)c(NC(=O)NC(C)(C)C)nc2n1 [PD-173074],> 2000

# Test system: NCI-H747;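 note: growth inhibition of human NCI-H747 cells, read out by a cell viability assay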
# Assay: cells
# Assay type: functional, cell-based, Homo sapiens
# Conditions: Homo sapiens, NCI-H747
# Description: SANGER: Inhibition of human NCI-H747 cell growth in a cell viability assay.
row,SMILES,IC50 [nM]
1,CCN(CC)CCCCNc1ncc2cc(-c3cc(OC)cc(OC)c3)c(NC(=O)NC(C)(C)C)nc2n1 [PD-173074],> 2000

# Test system: CGTH-W-1;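 note: growth inhibition of human CGTH-W-1 cells measured by cell viability assay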
# Assay: cells
# Assay type: functional, cell-based, Homo sapiens
# Conditions: Homo sapiens, CGTH-W-1
# Description: SANGER: Inhibition of human CGTH-W-1 cell growth in a cell viability assay.
row,SMILES,IC50 [nM]
1,CCN(CC)CCCCNc1ncc2cc(-c3cc(OC)cc(OC)c3)c(NC(=O)NC(C)(C)C)nc2n1 [PD-173074],> 2000

# Test system: OVCAR-4;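 note: growth inhibition of human OVCAR-4 cells, measured with a cell viability assay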
# Assay: cells
# Assay type: functional, cell-based, Homo sapiens
# Conditions: Homo sapiens, OVCAR-4
# Description: SANGER: Inhibition of human OVCAR-4 cell growth in a cell viability assay.
row,SMILES,IC50 [nM]
1,CCN(CC)CCCCNc1ncc2cc(-c3cc(OC)cc(OC)c3)c(NC(=O)NC(C)(C)C)nc2n1 [PD-173074],> 2000

# Test system: MSTO-211H
# Assay: cells
# Assay type: functional, cell-based, Homo sapiens
# Conditions: Homo sapiens, MSTO-211H
# Description: SANGER: Inhibition of human MSTO-211H cell growth in a cell viability assay.
row,SMILES,IC50 [nM]
1,CCN(CC)CCCCNc1ncc2cc(-c3cc(OC)cc(OC)c3)c(NC(=O)NC(C)(C)C)nc2n1 [PD-173074],1470

# Test system: SF-268;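 note: growth inhibition of SF-268 cells determined with a cell viability assay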
# Assay: cells
# Assay type: functional, cell-based, Homo sapiens
# Conditions: Homo sapiens, SF-268
# Description: SANGER: Inhibition of human SF268 cell growth in a cell viability assay.
row,SMILES,IC50 [nM]
1,CCN(CC)CCCCNc1ncc2cc(-c3cc(OC)cc(OC)c3)c(NC(=O)NC(C)(C)C)nc2n1 [PD-173074],> 2000

# Test system: OCUB-M;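 note: growth inhibition of the cancer cell line, read out through a cell viability assay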
# Assay: cells
# Assay type: functional, cell-based, Homo sapiens
# Conditions: Homo sapiens, OCUB-M
# Description: SANGER: Inhibition of human OCUB-M cell growth in a cell viability assay.
row,SMILES,IC50 [nM]
1,CCN(CC)CCCCNc1ncc2cc(-c3cc(OC)cc(OC)c3)c(NC(=O)NC(C)(C)C)nc2n1 [PD-173074],> 2000

# Test system: A3-KAW;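 note: growth inhibition of human A3-KAW cells, read out with a cell viability assay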
# Assay: cells
# Assay type: functional, cell-based, Homo sapiens
# Conditions: Homo sapiens, A3-KAW
# Description: SANGER: Inhibition of human A3-KAW cell growth in a cell viability assay.
row,SMILES,IC50 [nM]
1,CCN(CC)CCCCNc1ncc2cc(-c3cc(OC)cc(OC)c3)c(NC(=O)NC(C)(C)C)nc2n1 [PD-173074],> 2000

# Test system: HAL-01;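 note: growth inhibition of human HAL-01 cells, read out with a cell viability assay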
# Assay: cells
# Assay type: functional, cell-based, Homo sapiens
# Conditions: Homo sapiens, HAL-01
# Description: SANGER: Inhibition of human HAL-01 cell growth in a cell viability assay.
row,SMILES,IC50 [nM]
1,CCN(CC)CCCCNc1ncc2cc(-c3cc(OC)cc(OC)c3)c(NC(=O)NC(C)(C)C)nc2n1 [PD-173074],> 2000

# Test system: GR-ST
# Assay: cells
# Assay type: functional, cell-based, Homo sapiens
# Conditions: Homo sapiens, GR-ST
# Description: SANGER: Inhibition of human GR-ST cell growth in a cell viability assay.
row,SMILES,IC50 [nM]
1,CCN(CC)CCCCNc1ncc2cc(-c3cc(OC)cc(OC)c3)c(NC(=O)NC(C)(C)C)nc2n1 [PD-173074],> 2000

# Test system: GCIY;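 note: growth inhibition of the human GCIY cell line, read out by a cell viability assay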
# Assay: cells
# Assay type: functional, cell-based, Homo sapiens
# Conditions: Homo sapiens, GCIY
# Description: SANGER: Inhibition of human GCIY cell growth in a cell viability assay.
row,SMILES,IC50 [nM]
1,CCN(CC)CCCCNc1ncc2cc(-c3cc(OC)cc(OC)c3)c(NC(=O)NC(C)(C)C)nc2n1 [PD-173074],> 2000

# Test system: HCC2157;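 note: growth inhibition of the cancer cell line, read out as cell viability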
# Assay: cells
# Assay type: functional, cell-based, Homo sapiens
# Conditions: Homo sapiens, HCC2157
# Description: SANGER: Inhibition of human HCC2157 cell growth in a cell viability assay.
row,SMILES,IC50 [nM]
1,CCN(CC)CCCCNc1ncc2cc(-c3cc(OC)cc(OC)c3)c(NC(=O)NC(C)(C)C)nc2n1 [PD-173074],> 2000

# Test system: L-363
# Assay: cells
# Assay type: functional, cell-based, Homo sapiens
# Conditions: Homo sapiens, L-363
# Description: SANGER: Inhibition of human L-363 cell growth in a cell viability assay.
row,SMILES,IC50 [nM]
1,CCN(CC)CCCCNc1ncc2cc(-c3cc(OC)cc(OC)c3)c(NC(=O)NC(C)(C)C)nc2n1 [PD-173074],> 2000

# Test system: TGW;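 note: growth inhibition of human TGW cells, read out with a cell viability assay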
# Assay: cells
# Assay type: functional, cell-based, Homo sapiens
# Conditions: Homo sapiens, TGW
# Description: SANGER: Inhibition of human TGW cell growth in a cell viability assay.
row,SMILES,IC50 [nM]
1,CCN(CC)CCCCNc1ncc2cc(-c3cc(OC)cc(OC)c3)c(NC(=O)NC(C)(C)C)nc2n1 [PD-173074],> 2000

# Test system: NOMO-1;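 note: growth inhibition of human NOMO-1 cells measured by a cell viability assay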
# Assay: cells
# Assay type: functional, cell-based, Homo sapiens
# Conditions: Homo sapiens, NOMO-1
# Description: SANGER: Inhibition of human NOMO-1 cell growth in a cell viability assay.
row,SMILES,IC50 [nM]
1,CCN(CC)CCCCNc1ncc2cc(-c3cc(OC)cc(OC)c3)c(NC(=O)NC(C)(C)C)nc2n1 [PD-173074],> 2000

# Test system: A704;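 note: growth inhibition of human A704 cells, read out with a cell viability assay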
# Assay: cells
# Assay type: functional, cell-based, Homo sapiens
# Conditions: Homo sapiens, A704
# Description: SANGER: Inhibition of human A704 cell growth in a cell viability assay.
row,SMILES,IC50 [nM]
1,CCN(CC)CCCCNc1ncc2cc(-c3cc(OC)cc(OC)c3)c(NC(=O)NC(C)(C)C)nc2n1 [PD-173074],> 2000

# Test system: SK-MEL-1;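 note: growth inhibition of human SK-MEL-1 cells, read out by a cell viability assay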
# Assay: cells
# Assay type: functional, cell-based, Homo sapiens
# Conditions: Homo sapiens, SK-MEL-1
# Description: SANGER: Inhibition of human SK-MEL-1 cell growth in a cell viability assay.
row,SMILES,IC50 [nM]
1,CCN(CC)CCCCNc1ncc2cc(-c3cc(OC)cc(OC)c3)c(NC(=O)NC(C)(C)C)nc2n1 [PD-173074],> 2000
